Source: patent EP4748847A1, “PEPTIDE COMPLEX HAVING VEGFR -2 AGONIST ACTIVITY” (Peptidream Inc, priority 2023, dated 2025)
Blank lines part the entries; values can stand above or below the molecule they belong to. *1 amine or outer side, *2 acyl side, *3 side chain or, on linkers, in order; H or OH if unused. Where a SMILES comes first, the peptide text is derived from it. Bridges are numbered along the chain shown (N, C = ends). Roman numbers before positions name the chains, in order. [ ]: non-standard residue; d: D form. CO(CH2)2(OCH2CH2)17CO = O=C(CCOCCOCCOCCOCCOCCOCCOCCOCCOCCOCCOCCOCCOCCOCCOCCOCCOCCC(=O)[*:2])[*:1]; X1 = O=C(OCCOCCOCCOCCOCCOCCOCCOCCOCCOCCOCCOCCOCCOCCOCCOCCOC(=O)[*:2])[*:1]; X2 = O=C(OCCOCCOCCOCCOCCOCCOCCOCCOCCOCCOCCOCCOC(=O)[*:2])[*:1]; PEG12 = NCCOCCOCCOCCOCCOCCOCCOCCOCCOCCOCCOCCOCCC(=O)O; Phe(4-guanidino) = N=C(N)Nc1ccc(C[C@H](N)C(=O)O)cc1; Trp(7-aza) = N[C@@H](Cc1c[nH]c2ncccc12)C(=O)O; hTyr = N[C@@H](CCc1ccc(O)cc1)C(=O)O; h4Pal = N[C@@H](CCc1ccncc1)C(=O)O; Hyp = O=C(O)[C@@H]1C[C@@H](O)CN1; tBuAla = CC(C)(C)C[C@H](N)C(=O)O; Chg = N[C@H](C(=O)O)C1CCCCC1; Tle = CC(C)(C)[C@H](N)C(=O)O

Columns and labels:
VEGFR-2 [1] = target: T1, VEGFR-2 (Homo sapiens, UniProt P35968); test: pVEGFR AlphaLISA assay (VEGFR-2 phosphorylation, p-Tyr1175) in HUVECs; type: cell-based; settings: 10 minutes stimulation, % activity, maximum VEGF165a signal = 100%, unstimulated = 0%
T1 construct: endogenous in cells; host or cells: HUVEC
T1 sequence (P35968 20-1356): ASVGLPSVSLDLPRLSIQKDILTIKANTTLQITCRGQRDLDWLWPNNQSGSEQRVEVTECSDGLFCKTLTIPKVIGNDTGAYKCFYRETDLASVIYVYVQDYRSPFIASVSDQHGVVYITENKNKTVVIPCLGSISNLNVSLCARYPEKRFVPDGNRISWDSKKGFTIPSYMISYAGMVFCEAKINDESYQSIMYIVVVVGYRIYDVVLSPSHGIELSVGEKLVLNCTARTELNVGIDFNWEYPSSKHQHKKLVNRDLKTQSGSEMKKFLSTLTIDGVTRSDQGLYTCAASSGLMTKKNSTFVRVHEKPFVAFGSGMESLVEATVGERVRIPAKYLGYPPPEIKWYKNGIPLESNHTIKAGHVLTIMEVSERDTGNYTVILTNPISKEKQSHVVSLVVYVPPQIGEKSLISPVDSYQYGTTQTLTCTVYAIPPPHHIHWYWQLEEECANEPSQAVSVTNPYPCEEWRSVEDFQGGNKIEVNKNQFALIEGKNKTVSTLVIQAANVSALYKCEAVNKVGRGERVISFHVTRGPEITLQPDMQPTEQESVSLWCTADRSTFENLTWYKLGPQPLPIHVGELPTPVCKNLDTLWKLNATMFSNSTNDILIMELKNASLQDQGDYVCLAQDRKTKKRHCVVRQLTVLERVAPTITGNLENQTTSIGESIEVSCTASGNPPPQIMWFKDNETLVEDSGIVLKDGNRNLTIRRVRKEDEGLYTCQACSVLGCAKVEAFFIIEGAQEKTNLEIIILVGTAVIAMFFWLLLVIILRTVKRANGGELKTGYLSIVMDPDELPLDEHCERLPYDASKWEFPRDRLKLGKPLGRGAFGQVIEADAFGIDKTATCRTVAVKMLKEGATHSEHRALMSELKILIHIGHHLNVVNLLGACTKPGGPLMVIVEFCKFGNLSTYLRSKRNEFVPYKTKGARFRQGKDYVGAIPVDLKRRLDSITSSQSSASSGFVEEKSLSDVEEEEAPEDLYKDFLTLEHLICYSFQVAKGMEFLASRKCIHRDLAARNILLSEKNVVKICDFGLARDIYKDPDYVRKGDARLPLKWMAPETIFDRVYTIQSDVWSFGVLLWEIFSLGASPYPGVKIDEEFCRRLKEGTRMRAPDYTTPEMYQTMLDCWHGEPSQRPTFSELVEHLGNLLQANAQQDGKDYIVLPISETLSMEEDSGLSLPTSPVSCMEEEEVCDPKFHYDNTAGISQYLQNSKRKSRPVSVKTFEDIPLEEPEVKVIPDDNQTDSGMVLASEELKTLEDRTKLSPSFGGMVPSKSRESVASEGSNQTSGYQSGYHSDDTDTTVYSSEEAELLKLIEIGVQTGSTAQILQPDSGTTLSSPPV
Experimental: To evaluate the VEGFR-2 activation ability of the VEGFR-2 agonist peptides of the present invention, VEGFR-2 phosphorylation was verified. HUVECs were cultured using EGM™ -2 Endothelial Cell Growth Medium-2 BulletKit (LONZA; CC-3162). After detaching cells using Tryple (Thermo Fisher Scientific), they were seeded into a 96-well PDL-coated plate (Corning: 354461) at a density of 24,000 cells per well and cultured for 2 days. For starvation, the medium was replaced with EBM-2 medium (LONZA) containing 0.5% FBS (Thermo Fisher Scientific), 0.1% heparin (included with the above LONZA CC-3162), and 0.1% gentamicin (Nacalai), and the cells were cultured for 18 hours. Subsequently, Recombinant Human VEGF165a Protein (R&D Systems) or the peptide was added, and the cells were cultured in a CO2 incubator at 37°C. After 10 minutes of stimulation, cells were lysed using the Lysis Buffer included in the AlphaLISA SureFire Ultra VEGFR-2 (p-Tyr1175) Assay Kit (PerkinElmer) to lyse the cells. The procedure was performed according to the kit protocol, and signal detection was performed using a SpectraMax Paradigm multimode microplate reader (Molecular Devices). The obtained signals were analyzed using GraphPad Prism, and % activity was calculated with the maximum signal induced by VEGF165a set as 100% and the unstimulated control as 0%.
The VEGF165a concentration was evaluated at five points (0.08, 0.31, 1.25, 5, 20 nM) using 1/4-fold dilutions starting from 20 nM to determine the maximum value (100%). Peptide concentrations tested were: 3.2, 16, 80 nM for dimer structure number 1; 10, 100 nM for dimer structures numbers 2-41; and 1.25, 5, 20 nM for dimer structures numbers 42-57. […]
Peptides showing 50% or more activity at 10 nM were designated 2-A, those showing 50% or more activity at 100 nM were designated 2-B, and those showing 1% or more but less than 50% activity at 100 nM were designated 2-C.
Peptides showing 50% or more activity at 1.25 nM were designated 3-A, those showing 50% or more activity at 5 nM were designated 3-B, those showing 50% or more activity at 20 nM were designated 3-C, and those showing 1% or more but less than 50% activity at 20 nM were designated 3-D.

VEGFR-2 [2] = target: T2, VEGFR-2 (human, UniProt P35968 20-1356); test: cell-based or functional assay
T2 sequence (P35968 20-1356): as above

VEGFR-2 [3] = target: T2, VEGFR-2; test: cell-based or functional assay; remark: listed apart in the source
[4] = peptide 10, 100 nM (dimer structures 2-41)
[5] = peptide 1.25, 5, 20 nM (dimer structures 42-57)

pVEGFR2 Assay Results (VEGFR-2 [1]; [4]): 2-A (50% or more activity at 10 nM)
Molecule: CC(C)C[C@@H]1NC(=O)[C@H](CC(=O)O)NC(=O)[C@H](CC(=O)O)NC(=O)[C@H](CCCCNC(=O)CCOCCOCCOCCOCCOCCOCCOCCOCCOCCOCCOCCOCCOCCOCCOCCOCCOCCC(=O)NCCCC[C@@H]2NC(=O)[C@H](C(C)C)NC(=O)[C@H](CC(=O)O)NC(=O)[C@H](C(C)(C)C)NC(=O)[C@H](Cc3c[nH]c4ccccc34)NC(=O)[C@H](Cc3c[nH]c4ccccc34)NC(=O)CSC[C@@H](C(=O)NCC(N)=O)NC(=O)[C@H](CC(=O)O)NC(=O)[C@H](CCc3ccncc3)NC(=O)[C@H](Cc3ccccc3)NC(=O)[C@H](Cc3ccc(O)cc3)NC(=O)[C@H](CC(C)C)NC(=O)[C@H](CC(=O)O)NC(=O)[C@H](CC(=O)O)NC2=O)NC(=O)[C@H](C(C)C)NC(=O)[C@H](CC(=O)O)NC(=O)[C@H](C(C)(C)C)NC(=O)[C@H](Cc2c[nH]c3ccccc23)NC(=O)[C@H](Cc2c[nH]c3ccccc23)NC(=O)CSC[C@@H](C(=O)NCC(N)=O)NC(=O)[C@H](CC(=O)O)NC(=O)[C@H](CCc2ccncc2)NC(=O)[C@H](Cc2ccccc2)NC(=O)[C@H](Cc2ccc(O)cc2)NC1=O [compound 32] (I: {CH2CO}-WW[Tle]DVKDDLYF[h4Pal]DCG-NH2 / II: {CH2CO}-WW[Tle]DVKDDLYF[h4Pal]DCG-NH2; linker I:6-II:6 via CO(CH2)2(OCH2CH2)17CO; thioether I:N-I:14, II:N-II:14)

Molecule: CC(C)C[C@@H]1NC(=O)[C@H](CC(=O)O)NC(=O)CNC(=O)[C@H](CCC(N)=O)NC(=O)[C@H](C(C)C)NC(=O)[C@H](CC(=O)O)NC(=O)[C@H](C(C)C)NC(=O)[C@H](Cc2c[nH]c3ccccc23)NC(=O)[C@H](Cc2c[nH]c3ccccc23)NC(=O)CSC[C@@H](C(=O)NCC(=O)NCCOCCOCCOCCOCCOCCOCCOCCOCCOCCOCCOCCOCCC(=O)NCCCC[C@H](NC(=O)CCOCCOCCOCCOCCOCCOCCOCCOCCOCCOCCOCCOCCNC(=O)CNC(=O)[C@@H]2CSCC(=O)N[C@@H](Cc3c[nH]c4ccccc34)C(=O)N[C@@H](Cc3c[nH]c4ccccc34)C(=O)N[C@@H](C(C)C)C(=O)N[C@@H](CC(=O)O)C(=O)N[C@@H](C(C)C)C(=O)N[C@@H](CCC(N)=O)C(=O)NCC(=O)N[C@@H](CC(=O)O)C(=O)N[C@@H](CC(C)C)C(=O)N[C@@H](Cc3ccc(O)cc3)C(=O)N[C@@H](Cc3ccccc3)C(=O)N[C@@H](C(C)C)C(=O)N[C@@H](CC(=O)O)C(=O)N2)C(N)=O)NC(=O)[C@H](CC(=O)O)NC(=O)[C@H](C(C)C)NC(=O)[C@H](Cc2ccccc2)NC(=O)[C@H](Cc2ccc(O)cc2)NC1=O [compound 7] (I: {CH2CO}-WWVDVQGDLYFVDCG[PEG12]K-NH2 / II: {CH2CO}-WWVDVQGDLYFVDCG[PEG12]; amide I:17-II:C; thioether I:N-I:14, II:N-II:14)
pVEGFR2 Assay Results (VEGFR-2 [1]; [4]): 2-C (1% or more but less than 50% activity at 100 nM)

pVEGFR2 Assay Results (VEGFR-2 [1]; [5]): 3-C (50% or more activity at 20 nM)
Molecule: CC(C)C[C@@H]1NC(=O)[C@H](CC(=O)O)NC(=O)[C@H](CC(=O)O)NC(=O)[C@H](CCCCNC(=O)CCOCCOCCOCCOCCOCCOCCOCCOCCOCCOCCOCCOCCOCCOCCOCCOCCOCCC(=O)NCCCC[C@@H]2NC(=O)[C@H](C(C)C)NC(=O)[C@H](CC(=O)O)NC(=O)[C@H](C(C)(C)C)NC(=O)[C@H](Cc3c[nH]c4ccccc34)NC(=O)[C@H](Cc3c[nH]c4ncccc34)NC(=O)CSC[C@@H](C(=O)NCC(N)=O)NC(=O)[C@H](CC(=O)O)NC(=O)[C@H](CCc3ccc(O)cc3)NC(=O)[C@H](Cc3ccccc3)NC(=O)[C@H](Cc3ccc(O)cc3)NC(=O)[C@H](CC(C)C)NC(=O)[C@H](CC(=O)O)NC(=O)[C@H](CC(=O)O)NC2=O)NC(=O)[C@H](C(C)C)NC(=O)[C@H](CC(=O)O)NC(=O)[C@H](C(C)(C)C)NC(=O)[C@H](Cc2c[nH]c3ccccc23)NC(=O)[C@H](Cc2c[nH]c3ncccc23)NC(=O)CSC[C@@H](C(=O)NCC(N)=O)NC(=O)[C@H](CC(=O)O)NC(=O)[C@H](CCc2ccc(O)cc2)NC(=O)[C@H](Cc2ccccc2)NC(=O)[C@H](Cc2ccc(O)cc2)NC1=O [compound 46] (I: {CH2CO}-[Trp(7-aza)]W[Tle]DVKDDLYF[hTyr]DCG-NH2 / II: {CH2CO}-[Trp(7-aza)]W[Tle]DVKDDLYF[hTyr]DCG-NH2; linker I:6-II:6 via CO(CH2)2(OCH2CH2)17CO; thioether I:N-I:14, II:N-II:14)

pVEGFR2 Assay Results (VEGFR-2 [1]; [5]): 3-B (50% or more activity at 5 nM)
Molecule: CC(C)[C@@H]1NC(=O)[C@H](CC(=O)O)NC(=O)[C@H](C(C)(C)C)NC(=O)[C@H](Cc2c[nH]c3ccccc23)NC(=O)[C@H](Cc2c[nH]c3ccccc23)NC(=O)CSC[C@@H](C(=O)NCC(N)=O)NC(=O)[C@H](CC(=O)O)NC(=O)[C@H](CCc2ccc(O)cc2)NC(=O)[C@H](Cc2ccc(NC(=N)N)cc2)NC(=O)[C@H](Cc2ccc(O)cc2)NC(=O)[C@H](CC(C)(C)C)NC(=O)[C@H](CC(=O)O)NC(=O)[C@H](CC(=O)O)NC(=O)[C@H](CCCCNC(=O)OCCOCCOCCOCCOCCOCCOCCOCCOCCOCCOCCOCCOCCOCCOCCOCCOC(=O)NCCCC[C@@H]2NC(=O)[C@H](C(C)C)NC(=O)[C@H](CC(=O)O)NC(=O)[C@H](C(C)(C)C)NC(=O)[C@H](Cc3c[nH]c4ccccc34)NC(=O)[C@H](Cc3c[nH]c4ccccc34)NC(=O)CSC[C@@H](C(=O)NCC(N)=O)NC(=O)[C@H](CC(=O)O)NC(=O)[C@H](CCc3ccc(O)cc3)NC(=O)[C@H](Cc3ccc(NC(=N)N)cc3)NC(=O)[C@H](Cc3ccc(O)cc3)NC(=O)[C@H](CC(C)(C)C)NC(=O)[C@H](CC(=O)O)NC(=O)[C@H](CC(=O)O)NC2=O)NC1=O [compound 53] (I: {CH2CO}-WW[Tle]DVKDD[tBuAla]Y[Phe(4-guanidino)][hTyr]DCG-NH2 / II: {CH2CO}-WW[Tle]DVKDD[tBuAla]Y[Phe(4-guanidino)][hTyr]DCG-NH2; linker I:6-II:6 via X1; thioether I:N-I:14, II:N-II:14)

pVEGFR2 Assay Results (VEGFR-2 [1]; [5]): 3-B (50% or more activity at 5 nM)
Molecule: CC(C)[C@@H]1NC(=O)[C@H](CC(=O)O)NC(=O)[C@H](C(C)(C)C)NC(=O)[C@H](Cc2c[nH]c3ccccc23)NC(=O)[C@H](Cc2c[nH]c3ccccc23)NC(=O)CSC[C@@H](C(=O)NCC(N)=O)NC(=O)[C@@H]2C[C@@H](O)CN2C(=O)[C@H](CCc2ccc(O)cc2)NC(=O)[C@H](Cc2ccc(NC(=N)N)cc2)NC(=O)[C@H](Cc2ccc(O)cc2)NC(=O)[C@H](CC(C)(C)C)NC(=O)[C@H](CC(=O)O)NC(=O)[C@H](CC(=O)O)NC(=O)[C@H](CCCCNC(=O)OCCOCCOCCOCCOCCOCCOCCOCCOCCOCCOCCOCCOC(=O)NCCCC[C@@H]2NC(=O)[C@H](C(C)C)NC(=O)[C@H](CC(=O)O)NC(=O)[C@H](C(C)(C)C)NC(=O)[C@H](Cc3c[nH]c4ccccc34)NC(=O)[C@H](Cc3c[nH]c4ccccc34)NC(=O)CSC[C@@H](C(=O)NCC(N)=O)NC(=O)[C@@H]3C[C@@H](O)CN3C(=O)[C@H](CCc3ccc(O)cc3)NC(=O)[C@H](Cc3ccc(NC(=N)N)cc3)NC(=O)[C@H](Cc3ccc(O)cc3)NC(=O)[C@H](CC(C)(C)C)NC(=O)[C@H](CC(=O)O)NC(=O)[C@H](CC(=O)O)NC2=O)NC1=O [compound 54] (I: {CH2CO}-WW[Tle]DVKDD[tBuAla]Y[Phe(4-guanidino)][hTyr][Hyp]CG-NH2 / II: {CH2CO}-WW[Tle]DVKDD[tBuAla]Y[Phe(4-guanidino)][hTyr][Hyp]CG-NH2; linker I:6-II:6 via X2; thioether I:N-I:14, II:N-II:14)

pERK Assay Results (AlphaLISA p-Erk1/2, HUVEC) (VEGFR-2 [2]): ≥ 50 % activity at 10 nM
proliferation (HUVEC, CellTiter-Glo) (VEGFR-2 [3]): < 50 % activity at 100 nM
B1: Peptide complex Dimer Structure No. 14 (peptide)
peptide: {CH2CO}-WWVDVKDDLYFVDCG-NH2
modifications: thioether N-14; not fully specified (residue 6); also: homodimer: Lys6 joined to Lys6 of second copy by cPEG13c (Linker Structure No. 3)

pERK Assay Results (AlphaLISA p-Erk1/2, HUVEC) (VEGFR-2 [2]): ≥ 50 % activity at 10 nM
proliferation (HUVEC, CellTiter-Glo) (VEGFR-2 [3]): ≥ 50 % activity at 10 nM
B2: Peptide complex Dimer Structure No. 25 (peptide)
peptide: {CH2CO}-WW[Chg]DVKDDLYF[hTyr]DCG-NH2
modifications: thioether N-14; not fully specified (residue 6); also: homodimer: Lys6 joined to Lys6 of second copy by cPEG17c (Linker Structure No. 4)
